Tests used:
[1] = system: MDA-MB231 cell lines; test: MTT cell viability assay (IC50); format: cell-based; details: Homo sapiens, MDA-MB-231, single dose of treatment, 10^−9 to 10^−4 M, 570 nm absorbance (FIG. 1), read-out: half-maximal inhibitory concentration (IC50)
Protocol: (§1) HCT 116 colon cancer and MDA-MB231 breast cancer cell lines are used in cell culture experiments.
Cells were treated with high-glucose DMEM medium (Biosera) supplemented with 10% FBS (Gibco) and 1× penicillin/streptomycin (Multicell). The assay was designed to contain 10,000 cells for each well of 24-well cell culture plates before being treated with inhibitors.
Compound of formula I was dissolved with DMSO as 20 mM stock. 24 hours later, the solution was diluted in DMEM with 10% FBS and final concentration of vehicle DMSO was 0.5% at maximum. Therefore, the vehicle group included 0.5% DMSO concentration in experiments. Intensive cultivation of cells causes a decrease in proliferation capacity.
The MTT cell viability assay was used to detect values of half-maximal inhibitory concentration (IC50). Different concentrations of compound of formula I ranging between 10^−9 to 10^−4 M were tested on MDA-MB231 cell lines with single dose of treatment. 570 nm absorbance values were recorded and IC50 values were calculated by dose response—inhibition curves and nonlinear regression analysis on Graphpad Prism 8 software.

[2] = system: HCT 116 colon cancer and MDA-MB231 breast cancer cell lines; test: MTT cell proliferation inhibition analysis; format: cell-based; details: 100 μM; MTT at 12 h, 24 h, 48 h and 72 h; ANOVA, p<0.001 (FIG. 2)
Protocol: as §1
For proliferation inhibition analysis, cells were seeded in 24 well plates at 1×10^4 cells/well cells overnight without drug treatment. During the cell proliferation experiments, we performed five days of treatment in each cell line and repeated the experiments three times to check each experiment. No significant difference in cell viability was observed after the third day. Therefore, cells with different drug concentrations were treated for two days. After 48 hours, MTT was applied to the cells and incubated at 37° C. for 4 hours, formazan was solubilized with DMSO (Sigma-Aldrich, St. Louis, USA) and absorbance was measured at 570 nm.
Molecule concentration was 100 μM, the lower concentrations were not shown. Vehicle represents the groups treated with only %0.5 DMSO and Untreated represents no molecule treated group. Molecule responses were evaluated by cell viability which is obtained by spectrophotometric analysis of cells upon MTT treatment at 12 h, 24 h, 48 h and 72 h. […] Statistical significance in graphs was determined by comparing each treatment group with DMSO control using ANOVA testing and significance is considered as p<0.001 (FIG. 2).

[3] = target: MDM2 protein (Homo sapiens, UniProt Q00987); details: compared with natural p53 peptide; cited from earlier work
Chain of MDM2 protein (Q00987 whole entry, species assumed): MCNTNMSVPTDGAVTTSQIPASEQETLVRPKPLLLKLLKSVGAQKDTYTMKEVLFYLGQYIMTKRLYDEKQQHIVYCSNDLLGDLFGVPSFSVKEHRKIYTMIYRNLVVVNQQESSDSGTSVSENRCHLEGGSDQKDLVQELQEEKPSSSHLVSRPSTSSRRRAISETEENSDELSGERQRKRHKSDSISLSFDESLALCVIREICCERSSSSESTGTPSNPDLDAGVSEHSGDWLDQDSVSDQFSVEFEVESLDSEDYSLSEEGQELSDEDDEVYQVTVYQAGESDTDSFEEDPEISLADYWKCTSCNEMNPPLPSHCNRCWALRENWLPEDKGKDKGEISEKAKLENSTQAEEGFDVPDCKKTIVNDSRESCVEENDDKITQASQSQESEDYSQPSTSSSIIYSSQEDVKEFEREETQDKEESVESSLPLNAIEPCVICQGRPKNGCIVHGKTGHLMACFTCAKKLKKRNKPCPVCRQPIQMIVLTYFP

Molecule	IC50 [1]	cell viability (MTT) compared to vehicle and untreated groups [2]	binding affinity to MDM2 protein relative to a natural p53 peptide [3]
O=C(CSCc1ccccc1)NC(CC1CNc2ccccc21)C(=O)O (stereo not drawn) [compound of formula I]	98 µM	statistically significant difference compared to vehicle and untreated groups	
MI-319			500 fold
